Assay results as given in US5223484A, “Peptide which regulates weight gain in mammals” (Georgetown University, priority 1990, dated 1993).

What was measured:
[1] = Body weight of rabbits injected with peptide/carrier conjugate; type: in vivo; conditions: female rabbits, peptide coupled to keyhole limpet hemocyanin, 50 μg of peptide subcutaneously, repeated at two weeks then approximately monthly; P1 and P3 pooled (five rabbits)
Protocol: These peptides were then coupled chemically to keyhole limpet hemocyanin, a carrier protein, to improve the immunogenicity in rabbits.
Each peptide/carrier conjugate (50 μg of peptide, approximately 30 nanomoles) was injected subcutaneously into three female rabbits (three groups of three rabbits, approximately 2 months old). Two weeks later the rabbits were injected again with the same amounts of peptide/carrier conjugate. Thereafter, each rabbit was injected with the conjugate at approximately monthly intervals and blood samples were drawn. After five months, the rabbits were sacrificed.
Before the first injection, the rabbits were weighed for calculation of anesthetic dose (used to sedate the rabbits during injection). Before the rabbits were sacrificed, they were weighed again as the rabbits which received P2 were quite obese compared to all other rabbits. The average weight of the five injected with peptides P1 and P3 was 4.4 kg. This is normal for adult female rabbits of this type at this age, i.e. the average weight expected at 6 months is 4.5 kg. However, the weights of the rabbits injected with peptide P2 averaged 5.2 kg, approximately 20% higher.

[2] = Weight gain of mice injected with free peptide; type: in vivo, mice (BALB/c strain); conditions: BALB/c mice, free peptide 2.5 μg subcutaneously once per week, 85 days, five mice per group
Protocol: In order to obtain statistically significant data on the effects of peptide P2 on weight gain, another series of experiments using mice were performed. Three groups of five mice (BALB/c strain) were used. The first group received injections of peptide P2, a second group received injections of P3 (as control), and a third group received injections of saline (as control). Free peptides were used to avoid the possibility that the effect observed in Example 1 may have been due to the nature of the chemical coupling to the carrier protein. Each mouse (weighing approximately 15 grams) received an injection of 2.5 μg (1.5 nanomoles) of peptide or saline injected subcutaneously. The mice were weighed three times per week and injected once per week with another 2.5 μg of peptide or saline. After 85 days the mice were sacrificed.

| Substance | average weight of the rabbits at the end of five months [1] [kg] | effect on weight gain [2] |
| --- | --- | --- |
| KRPLQAEEQALSMDF [P1] | 4.4 |  |
| P3: amino-terminal cytochrome b 561 sequence Ser(21) - Tyr(37), cysteine added at amino-terminus, two lysine residues at carboxy-terminus (CSMEGPASPARAPGALPYKK) | 4.4 | not different than the P3 control group |
